Assay results published in patent publication US20250281498A1, “FUSED AMINO PYRIMIDINE COMPOUNDS FOR TREATMENT OF SYNUCLEINOPATHIES AND TDP-43 PROTEINOPATHIES” (Ovid Therapeutics Inc., priority 2024, published 2025).

How the values were obtained:
[1] = parameters: species or system mice; conditions: in vivo
[2] = target: T1, NKCC1 (Homo sapiens, UniProt P55011); assay: TI+ flux assay, HEK-293 cells expressing NKCC1; format: cell-based; conditions: read-out: concentration at which effects on NKCC1 were seen (EC50 chart FIG. 1G)
T1 construct: expressed in transfected cells; host or cells: HEK-293
T1 sequence (P55011 1-1212): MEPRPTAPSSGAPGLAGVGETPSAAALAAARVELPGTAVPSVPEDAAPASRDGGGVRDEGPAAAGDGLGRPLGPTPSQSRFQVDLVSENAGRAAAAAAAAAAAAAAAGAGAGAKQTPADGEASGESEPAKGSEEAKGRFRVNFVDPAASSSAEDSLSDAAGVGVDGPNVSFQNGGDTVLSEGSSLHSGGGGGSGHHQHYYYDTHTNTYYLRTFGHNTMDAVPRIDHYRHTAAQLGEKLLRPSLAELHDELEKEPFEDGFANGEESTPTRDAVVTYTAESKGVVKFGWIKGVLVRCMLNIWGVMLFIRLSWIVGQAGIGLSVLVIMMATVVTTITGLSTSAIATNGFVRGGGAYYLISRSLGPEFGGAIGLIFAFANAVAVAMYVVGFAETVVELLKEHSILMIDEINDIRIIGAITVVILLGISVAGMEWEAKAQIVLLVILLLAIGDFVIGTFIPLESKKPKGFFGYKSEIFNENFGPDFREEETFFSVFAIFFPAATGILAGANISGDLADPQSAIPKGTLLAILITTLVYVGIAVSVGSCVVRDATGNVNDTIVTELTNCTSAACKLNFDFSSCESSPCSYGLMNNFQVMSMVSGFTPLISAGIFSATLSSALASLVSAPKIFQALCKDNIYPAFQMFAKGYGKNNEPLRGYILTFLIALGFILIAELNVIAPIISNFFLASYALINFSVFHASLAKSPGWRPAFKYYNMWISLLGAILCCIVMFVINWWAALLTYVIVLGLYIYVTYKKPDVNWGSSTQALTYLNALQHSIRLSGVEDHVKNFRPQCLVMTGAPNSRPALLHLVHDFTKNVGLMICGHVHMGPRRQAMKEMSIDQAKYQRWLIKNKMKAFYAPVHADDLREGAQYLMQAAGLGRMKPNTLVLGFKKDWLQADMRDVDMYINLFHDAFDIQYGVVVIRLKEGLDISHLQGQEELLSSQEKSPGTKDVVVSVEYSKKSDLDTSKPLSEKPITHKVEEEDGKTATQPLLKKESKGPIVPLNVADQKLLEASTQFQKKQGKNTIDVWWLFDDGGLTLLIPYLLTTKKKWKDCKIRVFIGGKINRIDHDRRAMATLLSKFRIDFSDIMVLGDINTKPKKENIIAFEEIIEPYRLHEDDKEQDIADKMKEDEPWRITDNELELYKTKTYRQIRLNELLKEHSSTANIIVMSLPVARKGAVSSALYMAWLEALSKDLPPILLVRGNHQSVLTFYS
Method: (§1) FLIPR TI Flux assay. HEK-293 cells were washed with HBSS, and then incubated with loading buffer containing TI sensitive fluorescent dye (https://www.moleculardevices.com), 20 μM bumetanide 20 μM ouabain and 2.5 mM probenecid for 1 h at room temperature (RT) under control conditions or with drugs in the dark using a FlexStation 3 microplate reader (Molecular Devices) and imaged […] for 30 min. Stimulus buffer was added containing 5 mM K^+/0.5 mM Tl^+ and cells were imaged every 1.5 over a 190 second time course The initial rate Tl^+ uptake (Relative Fluorescence Units (RFU) per second) was determined following addition of the stimulus buffer as outlined previously (Conway et al., 2017, supra) (Lee et al., 2022, supra).
(§2) Several studies have shown that the activity and plasma membrane accumulation of KCC2 is potentiated via phosphorylation of S940, a process mediated by the activity of protein kinase C and protein phosphatase 1 (Lee et al., 2011, supra; Lee et al., J Biol Chem 282, 29777-29784 (2007); Moore et al., Proc. Natl. Acad. Sci. U.S.A. 115, 10166-10171 (2018); Moore et al., Trends Neurosci. 40, 555-571 (2017); Silayeva et al., Proc. Natl. Acad. Sci. U.S.A. 112, 3523-3528 (2015)). […] Compared to KCC2, effects on KCC3, KCC4, and NKCC1 were only seen at concentrations more than 35-fold that of KCC2 (>100 μM) (FIG. 1G).

[3] = target: T2, KCC4 (Homo sapiens, UniProt Q9Y666); assay: TI+ flux assay, HEK-293 cells expressing KCC4; format: cell-based; conditions: read-out: concentration at which effects on KCC4 were seen (EC50 chart FIG. 1G)
T2 construct: expressed in transfected cells; host or cells: HEK-293
T2 sequence (Q9Y666 1-1083): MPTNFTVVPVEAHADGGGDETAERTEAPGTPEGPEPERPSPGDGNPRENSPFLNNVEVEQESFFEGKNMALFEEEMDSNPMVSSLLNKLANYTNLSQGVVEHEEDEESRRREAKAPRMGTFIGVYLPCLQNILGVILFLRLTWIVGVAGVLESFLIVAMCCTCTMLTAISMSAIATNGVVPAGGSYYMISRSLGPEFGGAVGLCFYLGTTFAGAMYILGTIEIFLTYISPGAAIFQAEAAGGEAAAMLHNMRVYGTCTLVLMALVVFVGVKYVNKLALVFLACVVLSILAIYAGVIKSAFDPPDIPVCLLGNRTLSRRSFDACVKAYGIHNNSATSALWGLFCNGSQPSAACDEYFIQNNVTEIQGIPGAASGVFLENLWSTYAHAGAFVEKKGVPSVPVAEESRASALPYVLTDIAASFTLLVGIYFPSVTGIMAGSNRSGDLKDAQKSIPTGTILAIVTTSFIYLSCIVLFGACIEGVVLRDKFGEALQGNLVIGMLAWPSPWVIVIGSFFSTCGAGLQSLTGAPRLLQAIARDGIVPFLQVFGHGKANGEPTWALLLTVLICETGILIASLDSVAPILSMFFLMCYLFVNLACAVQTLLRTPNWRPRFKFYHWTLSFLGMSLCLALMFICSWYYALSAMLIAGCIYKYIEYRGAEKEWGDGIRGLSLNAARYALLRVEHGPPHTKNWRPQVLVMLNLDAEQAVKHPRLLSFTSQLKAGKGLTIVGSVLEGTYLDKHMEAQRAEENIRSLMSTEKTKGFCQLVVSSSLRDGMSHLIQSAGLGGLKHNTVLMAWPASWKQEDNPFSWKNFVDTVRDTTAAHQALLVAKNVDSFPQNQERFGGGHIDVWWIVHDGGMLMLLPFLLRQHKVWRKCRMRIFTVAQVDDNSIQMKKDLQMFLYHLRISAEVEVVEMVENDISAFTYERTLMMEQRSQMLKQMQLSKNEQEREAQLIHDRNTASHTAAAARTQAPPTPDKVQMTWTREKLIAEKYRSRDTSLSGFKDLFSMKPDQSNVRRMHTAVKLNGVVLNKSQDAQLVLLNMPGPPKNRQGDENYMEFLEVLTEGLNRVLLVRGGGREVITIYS
Method: as §1, §2

For `C[C@@H]1CN(c2nc3c(c(Nc4ccc(C5CCCCC5)cc4)n2)COC3)CCO1` [Compound A, (R)—N-(4-cyclohexylphenyl)-2-(2-methylmorpholino)-5,7-dihydrofuro[3,4-d]pyrimidin-4-amine], the “gross effects on mouse behavior in the open field” value [1] was “no gross effects on mouse behavior”, the “total distance traveled in open field” value ([1]; mouse, sc, 50 mg/kg) was 6134.2±235.3 cm and the EC50 [2] was greater than 100 µM. For the same compound, the EC50 [3] was greater than 100 µM.
